Data reported in patent publication US20250163051A1, “PYRIMIDO AROMATIC RING COMPOUND AND USE THEREOF IN DRUG” (SUNSHINE LAKE PHARMA CO., LTD., priority 2022, published 2025).

Columns and labels:
[1] = Cell toxicity (Celltiter-Glo) in HEK-Blue hTLR8 cells; conditions: human
hERG channel = target: T1, hERG channel (Homo sapiens, UniProt Q12809); experiment: hERG channel current in HEK293 cells, automated patch clamp; format: cell-based; conditions: HEK-293 cells stably expressing hERG, whole-cell patch clamp, 0.3-30 μM
T1 construct: expressed in transfected cells; host or cells: HEK-293 cells stably expressing hERG
T1 sequence (Q12809 whole entry): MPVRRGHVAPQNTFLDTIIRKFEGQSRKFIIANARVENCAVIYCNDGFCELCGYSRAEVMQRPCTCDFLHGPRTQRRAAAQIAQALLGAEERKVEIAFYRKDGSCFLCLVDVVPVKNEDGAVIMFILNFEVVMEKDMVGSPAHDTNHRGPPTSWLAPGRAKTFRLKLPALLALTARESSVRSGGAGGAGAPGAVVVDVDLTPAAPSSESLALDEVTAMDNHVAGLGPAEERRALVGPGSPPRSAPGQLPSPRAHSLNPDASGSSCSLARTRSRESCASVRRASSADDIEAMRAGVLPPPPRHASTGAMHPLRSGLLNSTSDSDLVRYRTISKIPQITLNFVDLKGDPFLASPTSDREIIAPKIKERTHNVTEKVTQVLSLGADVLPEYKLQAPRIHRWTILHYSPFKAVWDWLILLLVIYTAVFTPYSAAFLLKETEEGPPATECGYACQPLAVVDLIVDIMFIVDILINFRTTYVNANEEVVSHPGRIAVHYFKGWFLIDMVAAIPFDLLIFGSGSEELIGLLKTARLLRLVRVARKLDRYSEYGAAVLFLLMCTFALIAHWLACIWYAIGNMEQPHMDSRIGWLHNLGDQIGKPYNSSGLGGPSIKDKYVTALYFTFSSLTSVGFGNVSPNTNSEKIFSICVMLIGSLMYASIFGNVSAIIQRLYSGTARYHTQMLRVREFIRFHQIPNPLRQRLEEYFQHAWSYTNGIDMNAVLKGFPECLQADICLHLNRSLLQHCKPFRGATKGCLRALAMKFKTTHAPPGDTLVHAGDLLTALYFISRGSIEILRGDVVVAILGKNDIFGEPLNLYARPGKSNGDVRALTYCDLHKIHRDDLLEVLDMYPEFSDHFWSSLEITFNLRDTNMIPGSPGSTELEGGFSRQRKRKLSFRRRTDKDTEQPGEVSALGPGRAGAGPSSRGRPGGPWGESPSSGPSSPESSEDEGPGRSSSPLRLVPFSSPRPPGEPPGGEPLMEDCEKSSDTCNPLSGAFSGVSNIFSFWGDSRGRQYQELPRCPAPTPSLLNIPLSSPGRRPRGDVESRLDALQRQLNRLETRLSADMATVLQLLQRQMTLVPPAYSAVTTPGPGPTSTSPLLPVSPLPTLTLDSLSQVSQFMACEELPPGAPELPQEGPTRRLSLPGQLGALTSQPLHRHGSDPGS
Method: Test 2: Detection of the Effect of Compounds on hERG Channel Currents Stably Expressed in HEK293 Cells Using Automated Patch Clamp
Experimental purpose: The concentration-effect relationship of the blocking effect of the compounds on hERG channels was determined using the patch clamp technique and HEK-293 cells stably expressing hERG channels to evaluate their risk of inhibitory effect on cardiac hERG potassium channels.
Experimental method: hERG cells were clamped using the patch clamp technique to form a high-resistance seal and then the membrane was broken. The whole-cell recording mode was used to record the hERG current. Each drug concentration was set to be administered twice for at least 5 minutes. The test concentrations were 0.3 μM, 1 μM, 3 μM, 10 μM and 30 μM, and the changes of the test compounds on hERG current were observed.

hTLR7 = target: T2, hTLR7 (Homo sapiens, UniProt Q9NYK1); experiment: Agonistic activity on human TLR7 in HEK-Blue hTLR7 cells (QUANTI-Blue); format: cell-based; conditions: 24 h incubation, OD650, read-out: hTLR 7 EC50
T2 construct: expressed in transfected cells; host or cells: HEK-Blue hTLR7 cells
T2 sequence (Q9NYK1 27-1049): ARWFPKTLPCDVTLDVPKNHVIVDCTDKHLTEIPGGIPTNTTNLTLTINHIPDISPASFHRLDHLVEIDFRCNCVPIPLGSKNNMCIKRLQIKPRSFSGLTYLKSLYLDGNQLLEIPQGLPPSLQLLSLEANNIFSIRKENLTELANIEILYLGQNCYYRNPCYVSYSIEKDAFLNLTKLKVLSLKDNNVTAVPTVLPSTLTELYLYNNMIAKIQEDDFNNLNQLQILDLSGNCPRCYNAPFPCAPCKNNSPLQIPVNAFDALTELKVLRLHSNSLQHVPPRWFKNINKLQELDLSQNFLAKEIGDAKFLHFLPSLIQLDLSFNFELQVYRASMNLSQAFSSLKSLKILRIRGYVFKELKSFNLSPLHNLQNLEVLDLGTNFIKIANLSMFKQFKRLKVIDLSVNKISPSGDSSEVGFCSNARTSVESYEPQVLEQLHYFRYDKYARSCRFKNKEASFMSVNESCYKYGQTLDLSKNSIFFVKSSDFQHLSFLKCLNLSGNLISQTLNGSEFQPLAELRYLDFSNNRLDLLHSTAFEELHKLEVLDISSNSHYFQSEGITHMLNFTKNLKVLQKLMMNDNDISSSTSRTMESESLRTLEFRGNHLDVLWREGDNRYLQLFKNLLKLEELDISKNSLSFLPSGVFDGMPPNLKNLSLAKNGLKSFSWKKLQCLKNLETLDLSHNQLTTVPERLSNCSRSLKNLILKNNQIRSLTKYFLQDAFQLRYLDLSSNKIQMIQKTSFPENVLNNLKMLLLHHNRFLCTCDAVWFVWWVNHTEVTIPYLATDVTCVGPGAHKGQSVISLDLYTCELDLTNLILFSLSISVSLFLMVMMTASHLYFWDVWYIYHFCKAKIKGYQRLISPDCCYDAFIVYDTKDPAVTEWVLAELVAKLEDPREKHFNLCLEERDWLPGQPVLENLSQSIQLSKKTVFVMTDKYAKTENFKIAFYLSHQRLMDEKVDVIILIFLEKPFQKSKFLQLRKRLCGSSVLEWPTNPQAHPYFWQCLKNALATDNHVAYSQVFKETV
Method: Purpose: HEK-Blue™ hTLR7 and HEK-Blue™ hTLR8 cells were used to detect the agonist and cytotoxic activities of compounds against hTLR7 and hTLR8.
The experimental steps were as shown below: • 1) Preparation of compound: The compound was prepared into a 20 mM stock solution with DMSO, and then the stock solution was diluted 3-fold in a gradient and added to a 96-well plate, for a total of 10 concentrations, with duplicate wells for each concentration. For negative control wells, 0.5 μL DMSO was added to each well. The final DMSO concentration was 0.5%. • 2) HEK-Blue™ hTLR7 or HEK-Blue™ hTLR8 cells were suspended in culture medium and then seeded into 96-well plates containing compounds at a cell count of 50,000 per well. The compounds and cells were incubated for 24 h at 37° C., 5% Co2. • 3) QUANTI-Blue was used for the detection solution: to a mixture of 1 mL of QB reagent and 1 mL of QB buffer was added 98 mL of sterile water, the mixture was mixed and dissolved, and then placed at room temperature for 10 min. • 4) Activity test of the compound: 20 μL of the culture supernatant in step 2) was added to each well of a 96-well plate containing 180 μL of QUANTI-Blue detection solution. After incubation at 37° C. for 1 h, the absorbance at 650 nm (OD650) was detected using a multifunctional microplate reader Flextation III. • 5) Detection of cell activity: The chemiluminescent signal (RLU) was detected using the multifunctional microplate reader Flextation III according to the instructions of Celltiter-Glo. • 6) Data analysis
Activity of compounds: OD650 values were analyzed using GraphPad Prism software, and the compound dose-effect curves were fitted to calculate the EC50 values of the compounds.

CYP3A4 = experiment: Induction of CYP3A4 in frozen human hepatocytes; format: in vitro ADME; conditions: 72 h induction, concentration and readout not stated; for CYP3A4 Induction percentage relative to positive control (%): positive control Rifampicin
Method: (§1) Experimental purpose: Using frozen human hepatocytes as the test system, the induction effects of the test substances on CYP1A2, CYP2B6 and CYP3A4 were evaluated from two aspects of enzyme activity and mRNA level.
(§2) Experimental method: 24 hours after cell plating, induction was started by adding medium containing the test compound (test concentrations were 10, 1, and 0.1 μM), and fresh drug-containing medium was replaced every 24 hours. After 72 hours of induction, the medium was replaced with medium containing CYP1A2, CYP2B6, and CYP3A4 specific substrates for 30 minutes of incubation. 100 μL was taken for treatment, and the labeled metabolites of the substrates were detected to evaluate the enzyme activity level. Finally, the cells were lysed and reverse transcribed, and the expression levels of CYP1A2, CYP2B6 and CYP3A4 genes in the cells were evaluated by real-time quantitative PCR.
(§3) The induction fold of the test compound compared with the blank control and the induction percentage of the test compound compared with the positive control were used as the basis for evaluating the induction potential of the test compound. Among them, the positive control for CYP1A2 is Omeprazole; the positive control for CYP2B6 is Phenobarbital; the positive control for CYP3A4 is Rifampicin.

hTLR8 = target: T3, hTLR8 (Homo sapiens, UniProt Q9NR97); experiment: Agonistic activity on human TLR8 in HEK-Blue hTLR8 cells (QUANTI-Blue); format: cell-based; conditions: 24 h incubation, OD650, read-out: hTLR 8 EC50
T3 construct: expressed in transfected cells; host or cells: HEK-Blue hTLR8 cells
T3 sequence (Q9NR97 27-1041): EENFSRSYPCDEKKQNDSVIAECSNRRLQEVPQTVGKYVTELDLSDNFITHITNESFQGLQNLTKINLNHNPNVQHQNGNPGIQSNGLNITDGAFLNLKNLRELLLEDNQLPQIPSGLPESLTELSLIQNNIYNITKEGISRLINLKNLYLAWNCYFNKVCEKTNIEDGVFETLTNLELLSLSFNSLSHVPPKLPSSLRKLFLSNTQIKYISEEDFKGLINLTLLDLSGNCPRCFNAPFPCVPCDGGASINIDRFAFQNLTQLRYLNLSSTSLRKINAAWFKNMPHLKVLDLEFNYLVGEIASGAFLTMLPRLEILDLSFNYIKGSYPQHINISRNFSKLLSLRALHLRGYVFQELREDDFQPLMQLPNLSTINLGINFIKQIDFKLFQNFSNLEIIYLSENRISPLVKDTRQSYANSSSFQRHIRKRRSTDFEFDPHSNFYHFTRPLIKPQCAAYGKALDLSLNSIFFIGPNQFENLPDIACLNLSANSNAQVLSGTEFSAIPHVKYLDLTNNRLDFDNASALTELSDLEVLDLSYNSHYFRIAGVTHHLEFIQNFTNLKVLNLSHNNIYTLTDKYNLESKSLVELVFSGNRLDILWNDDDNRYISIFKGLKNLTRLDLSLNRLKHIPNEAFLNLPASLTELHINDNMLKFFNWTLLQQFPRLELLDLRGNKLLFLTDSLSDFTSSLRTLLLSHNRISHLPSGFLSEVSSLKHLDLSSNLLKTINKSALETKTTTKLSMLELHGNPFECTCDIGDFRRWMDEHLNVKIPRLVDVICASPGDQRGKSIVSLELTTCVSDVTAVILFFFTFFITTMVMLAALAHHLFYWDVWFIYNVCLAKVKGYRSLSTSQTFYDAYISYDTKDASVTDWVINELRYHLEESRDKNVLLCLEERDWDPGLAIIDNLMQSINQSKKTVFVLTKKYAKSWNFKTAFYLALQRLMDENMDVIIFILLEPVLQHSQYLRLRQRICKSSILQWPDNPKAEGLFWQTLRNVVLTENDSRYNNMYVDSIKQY

CYP1A2 = experiment: Induction of CYP1A2 in frozen human hepatocytes; format: in vitro ADME; conditions: 72 h induction, concentration and readout not stated
Method: as §1, §2, §3

CYP2B6 = experiment: Induction of CYP2B6 in frozen human hepatocytes; format: in vitro ADME; conditions: 72 h induction, concentration and readout not stated; for CYP2B6 Induction percentage relative to positive control (%): positive control Phenobarbital
Method: as §1, §2, §3

in vitro = conditions: human

Compound	CC50 at 24 h [1]	IC50 (hERG channel)	EC50 (hTLR7)	CYP3A4 Induction fold relative to blank control (CYP3A4)	CYP3A4 Induction percentage relative to positive control (%) (CYP3A4)	EC50 (hTLR8)	CYP1A2 Induction fold relative to blank control (CYP1A2)	CYP2B6 Induction fold relative to blank control (CYP2B6)	CYP2B6 Induction percentage relative to positive control (%) (CYP2B6)	CC50 at 24 h (in vitro)
C=CCCN(C)Cc1c[nH]c(=O)cc1-c1cnc2c(N[C@@](C)(CO)CCCC)nc(N)nc2c1 [Example 9, (R)-4-(2-Amino-4-((1-hydroxy-2-methylhexan-2-yl)amino)pyrido[3,2-d]pyrimidin-7-yl)-5-((but-3-en-1-yl(methyl)amino)methyl)pyridin-2(1H)-one]	> 100 µM	24.7 µM	31.8 µM	4.2	2.0%	0.02 µM	1.0	1.3	4.2%	
CCCC[C@](C)(CO)Nc1nc(N)nc2cc(-c3cc(=O)n(C)cc3CN3CCNCC3)cnc12 [Example 5]			> 100 µM			2.72 µM				> 100 µM
CCCC[C@](C)(CO)Nc1nc(N)nc2cc(F)cnc12 [Comparative compounds, (R)-2-((2-amino-7-fluoropyrido[3,2-d]pyrimidin-4-yl)amino)-2-methylhexan-1-ol, reference compound]		3.3 µM		9.5	15.8%		2.6	3.6	24.5%	
